Measurements published in patent US20160228380A1, “IMPREGNANATION OF OXYGEN CARRIER COMPOUNDS INTO CARRIER MATERIALS PROVIDING COMPOSITIONS AND METHODS FOR THE TREATMENT OF WOUNDS AND BURNS” (VIRGINIA COMMONWEALTH UNIVERSITY, priority 2013, published 2016).

Assay: TGA of PFD weight loss from coated aerogel, uncoated aerogel and pure PFD
Type: physicochemical
Settings: held at 37° C. for 60 minutes, aerogel-free basis

In the case of `FC1(F)C(F)(F)C(F)(F)C2(F)C(F)(F)C(F)(F)C(F)(F)C(F)(F)C2(F)C1(F)F` (stereo not shown) [pure PFD, perfluorodecalin], the “loss of available PFD” value is reported as 100%.
